Results reported in paper PMC11243058, “Identification of Novel Isatin Derivative Bearing a Nitrofuran Moiety as Potent Multi-Isoform Aldehyde Dehydrogenase Inhibitor” (Molecules, 2024).
Where two headings read alike, the source gives them in different places.

Assays:
ALDH3A1 = molecular target: T1, ALDH3A1 (Homo sapiens, UniProt P30838); test: ALDH isoform-specific enzyme inhibition assay, ALDH3A1; assay type: biochemical; settings: Acetaldehyde (Substrate); for inhibition at 0.5 µM: 500 nM
T1 construct: purchased R&D systems
T1 sequence (P30838 1-453): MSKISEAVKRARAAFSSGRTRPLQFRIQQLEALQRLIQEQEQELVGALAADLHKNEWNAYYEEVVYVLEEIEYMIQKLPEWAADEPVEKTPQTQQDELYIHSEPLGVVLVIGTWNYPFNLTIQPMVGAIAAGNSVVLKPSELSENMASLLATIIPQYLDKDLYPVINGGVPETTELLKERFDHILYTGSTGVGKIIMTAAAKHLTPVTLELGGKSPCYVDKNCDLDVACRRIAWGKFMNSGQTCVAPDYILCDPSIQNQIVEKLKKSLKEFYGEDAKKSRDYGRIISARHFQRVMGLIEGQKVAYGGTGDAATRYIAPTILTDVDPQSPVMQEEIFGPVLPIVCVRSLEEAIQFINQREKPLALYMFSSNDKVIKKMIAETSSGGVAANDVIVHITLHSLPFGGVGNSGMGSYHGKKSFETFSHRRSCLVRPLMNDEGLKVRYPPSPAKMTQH
Method: (§1) ALDH1A1, ALDH3A1, and ALDH1A3 enzyme inhibition assays were performed as reported previously. Briefly, 500 ng/100 uL of ALDH1A1, ALDH3A1, and ALDH1A3 were treated with 500 nM concentration of the tested compounds and incubated for 15 min followed by the addition of reaction mixture (substrate + Substrate mixture). […] The absorbance was measured at 450 nm. [Absorbance Control–Absorbance treated/Absorbance Control]100 was used to compute the percentage of inhibition.

HCT-116 = test: Cell viability assay (MTS), HCT-116; assay type: cell-based, human; settings: 48 h, mean ± SD
Method: (§2) Five thousand cells/well were plated in 96-well plates in growth media and left for attachment for 24 h. The cells were then treated with the respective compounds using varying concentrations for 48 h. At the end of the treatment duration, a solution of MTS [3-(4,5-dimethylthiazol-2-yl)-5-(3-carboxymethoxyphenyl)-2-(4-sulfophenyl)-2H-tetrazolium] and an electron coupling reagent, PES (phenazine ethosulfate) (Promega, Madison, WI, USA) was added to the cells. Then, 15 μL of MTS reagent was added to each well, and the absorbance was assessed at 490 nm with a microplate reader (Dynex Technologies, MRX Revelation; Chantilly, VA, USA) after 1 h incubation with MTS. The data were recorded, and the IC50 value was calculated using non-linear curve regression analysis (Graph pad V8.0, CA, USA).

SKOV-3 = test: Cell viability assay (MTS), SKOV-3; assay type: cell-based, human; settings: 48 h, mean ± SD
Method: as §2

FHC = test: Cell viability assay (MTS), FHC; assay type: cell-based; settings: normal fetal human cells, 48 h, mean ± SD
Method: as §2

ALDH1A1 = molecular target: T2, ALDH1A1 (Homo sapiens, UniProt P00352); test: ALDH isoform-specific enzyme inhibition assay, ALDH1A1; assay type: biochemical; settings: Acetaldehyde (Substrate); for inhibition at 0.5 µM: 500 nM
T2 construct: purchased R&D systems
T2 sequence (P00352 1-501): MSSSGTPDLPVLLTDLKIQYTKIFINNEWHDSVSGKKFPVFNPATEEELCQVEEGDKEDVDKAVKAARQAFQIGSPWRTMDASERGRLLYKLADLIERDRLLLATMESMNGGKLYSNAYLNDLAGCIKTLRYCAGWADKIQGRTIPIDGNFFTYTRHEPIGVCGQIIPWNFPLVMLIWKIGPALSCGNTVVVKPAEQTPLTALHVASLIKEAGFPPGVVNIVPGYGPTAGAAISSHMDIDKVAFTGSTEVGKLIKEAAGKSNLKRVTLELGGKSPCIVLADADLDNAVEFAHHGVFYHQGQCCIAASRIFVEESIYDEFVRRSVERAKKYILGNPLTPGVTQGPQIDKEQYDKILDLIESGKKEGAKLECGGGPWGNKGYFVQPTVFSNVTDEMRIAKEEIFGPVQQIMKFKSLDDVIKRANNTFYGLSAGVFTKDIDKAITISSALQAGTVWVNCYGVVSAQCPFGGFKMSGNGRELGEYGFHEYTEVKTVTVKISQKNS
Method: as §1

HEK-293 = test: Cell viability assay (MTS), HEK-293; assay type: cell-based; settings: 48 h, mean ± SD
Method: as §2

MiaPaCa-2 = test: Cell viability assay (MTS), MiaPaCa-2; assay type: cell-based, human; settings: 48 h, mean ± SD
Method: as §2

[1] = system: SKOV-3, MiaPaCa-2, HCT-116, HEK-293, and FHC cell lines; test: Cell viability assay (MTS), statements over the cell line panel; assay type: cell-based, human
Method: as §2

[2] = Cell viability assay (MTS), statements over the cell line panel; assay type: cell-based, human; settings: human; range or statement over all tested cell lines, 48 h MTS; read-out: IC50 / cytotoxicity against the tested cell lines
Method: as §2

HCT-116 cells [3] = test: Apoptosis assay, Annexin V/7-AAD; assay type: cell-based, human; settings: HCT-116, 3 µM, 48 h, relative to KS100
Method: (§3) The apoptosis assays were carried out following the manufacturer’s instructions using the Muse Caspase-3/7 assay kit and Annexin V/7-AAD kit (Luminex Corp., TX, US). In a 6-well plate, the cells were seeded at a density of 1X105 cells/well. The cells were treated with 3 µM of the compounds following a 24 h incubation period. The cells were cultured for 48 h (Annexin V/7-AAD) as opposed to 24 h (Caspase-3/7 test). Cell Dissociation buffer, an enzyme-free solution, was used to harvest the cells at the end of the treatment period. The samples were then given the appropriate dye treatments following the manufacturer’s instructions.

HCT-116 cells [4] = test: ROS generation (Muse Oxidative Stress Kit); assay type: cell-based, human; settings: HCT-116, 3 µM, 24 h, relative to KS100
Method: The Muse® Oxidative Stress Kit (Luminex Corp., Austin, TX, USA) was used to assess the generation of ROS in the HCT-116 cells after the treatment with the compounds. In a 6-well plate, the cells were seeded at a density of 1 × 10^5 cells/well. After 24 h incubation, the cells were treated with the respective compounds with or without 5 mM of N-acetylcysteine (NAC) in the serum-enriched medium for 24 h. At the end of the treatment duration, the cells were harvested, and 10 μL of cells in suspension was added into each tube. Furthermore, 190 μL of Muse Oxidative Stress Reagent working solution was added to each tube. The samples were mixed thoroughly by pipetting up and down or vortexing at medium speed for 3 to 5 s. The samples were incubated for 30 min at 37 °C and analyzed using Muse Cell Analyzer.

UACC 903 cells = test: ALDEFLUOR assay; assay type: cell-based, human; settings: UACC 903 melanoma cells, 1 µM, 24 h
Method: Aldehyde dehydrogenase (ALDH) activity within human melanoma cells was assessed by utilizing the ALDEFLUOR Kit from […] Technologies. […] Post-treatment, cells were washed with PBS, and the ALDEFLUOR assay was performed following the manufacturer’s protocol, employing DEAB as a negative control. ALDH percentages were determined using a BD LSRFortessa flow cytometer (San Jose, CA, USA).

HCT-116 cells [5] = test: Apoptosis assay, Muse Caspase-3/7 7-AAD; assay type: cell-based, human; settings: HCT-116, 3 µM, 24 h, relative to KS100
Method: as §3

γH2AX in HCT-116 cells = test: Western blot for γH2AX; assay type: cell-based, human; settings: HCT-116, 3 µM, 12 h
Method: Western blotting was performed as described previously. The antibodies used were procured from Cell Signaling Technologies. […] The protein was transferred to a 0.45 µm pore membrane (Immobilon®-P PVDF Membrane, EMD Millipore, USA). The membranes were further treated with the respective primary and secondary antibodies. The Western blot images are representative of three independent experiments.

HNSCC xenograft = settings: injected intratumorally ref 29; cited from earlier work
[6] = Homo sapiens, HCT-116, colon cancer cells
[7] = Homo sapiens, SK-OV-3, ovarian cancer cells
[8] = HEK293, human embryonic kidney cells
[9] = Homo sapiens, MIA PaCa-2, pancreatic cancer cells

Compound	inhibition at 0.5 µM (ALDH3A1) [%]	IC50 (HCT-116; [6]) [µM]	IC50 (SKOV-3; [7]) [µM]	IC50 (FHC; FHC) [µM]	inhibition at 0.5 µM (ALDH1A1) [%]	IC50 (HEK-293; [8]) [µM]	IC50 (MiaPaCa-2; [9]) [µM]	melting point [°C]	IC50 at 48 h [2] [µM]	other results
4-((5-(Trifluoromethyl)-1H-indazol-1-yl)methyl)benzylcarbamimidothioate hydrobromide [Compound 12]										% Enzyme Inhibition at 500 nM ALDH3A1 (ALDH3A1): −14.03 ± 0.06%; IC50 (HCT-116; colon cancer cells): 5.5 ± 0.1 µM; IC50 (SKOV-3; ovarian cancer cells): 8.2 ± 2.7 µM; IC50 (FHC): 3.1 ± 0.8 µM; % Enzyme Inhibition at 500 nM ALDH1A1 (ALDH1A1): 10.01 ± 0.01%; IC50 (HEK-293; human embryonic kidney cells): 4.7 ± 1.1 µM; IC50 (MiaPaCa-2; pancreatic cancer cells): 4.7 ± 0.4 µM; IC50 ([1]; ovarian, colon, and pancreatic cancer cells, 48 h MTS, read-out: IC50 in cancer cell lines): 4.7 to 33 µM
Br.C=CCNC(=N)SCc1ccc(CN2C(=O)C(=O)c3cc(Br)cc(Br)c32)cc1 [Compound 1, 4-((5,7-Dibromo-2,3-dioxoindolin-1-yl)methyl)benzyl allylcarbamimidothioate hydrobromide]	30.59 ± 0.02	4.7 ± 1.1	4.8 ± 0.2	2.9 ± 0.3	35.37 ± 0.01	4.1 ± 0.8	2.4 ± 1.1	118 to 120	2.1 to 6.8	
COC(=O)/C=C/c1ccc(CN2C(=O)C(=O)c3cc(Br)cc(Br)c32)cc1 [Compound 2, Methyl (E)-3-(4-((5,7-dibromo-2,3-dioxoindolin-1-yl)methyl)phenyl)acrylate]		19.6 ± 3.3	21.8 ± 2.4	22.9 ± 3.3		24.1 ± 6.8	22.3 ± 5.1		> 20	
O=C(OCc1ccc(CN2C(=O)C(=O)c3cc(Br)cc(Br)c32)cc1)c1ccc([N+](=O)[O-])o1 [Compound 3, 4-((5,7-Dibromo-2,3-dioxoindolin-1-yl)methyl)benzyl 5-nitrofuran-2-carboxylate]	51.87 ± 0.05	2.1 ± 0.1	2.2 ± 0.2	7.1 ± 0.8	51.32 ± 0.01	8.7 ± 1.1	3.8 ± 0.4		2.1 to 6.8	more apoptotic cell population than KS100, Annexin V/7-AAD (HCT-116 cells [3]): ~ 13%; more ROS than KS100 (HCT-116 cells [4]): 34.7%; inhibition of overall ALDH activity (ALDEFLUOR) (UACC 903 cells): ~ 2.5 fold; IC50 ([1]; Homo sapiens, HEK293, FHC and HEK-293, 48 h MTS, read-out: IC50 in normal and embryonic kidney cells): 7.1 to 8.7 µM; IC50 ([1]; Homo sapiens, Pancreatic cancer cell, ovarian, colon, and pancreatic cancer cells, 48 h MTS, read-out: IC50 in cancer cell lines): 2.1 to 3.8 µM; greater effectiveness than KS100 in targeting cancer cells ([1]; from MTS IC50 values): 0.5 to 2 times; more apoptotic cell population than KS100, caspase-3/7 7-AAD (HCT-116 cells [5]): ~ 12.8%; γH2AX protein levels (γH2AX in HCT-116 cells): increased γH2AX protein levels
O=C(OCc1ccc(CN2C(=O)C(=O)c3cc(Br)cc(Br)c32)cc1)c1ccco1 [Compound 4, 4-((5,7-Dibromo-2,3-dioxoindolin-1-yl)methyl)benzyl furan-2-carboxylate]	22.82 ± 0.05	6.1 ± 1.2	7.2 ± 1.3	6.7 ± 1.9	28.26 ± 0.01	5.3 ± 1.4	7.1 ± 0.8	132 to 134		
O=Cc1ccc(CN2C(=O)C(=O)c3cc(Br)cc(Br)c32)cc1 [Compound 5, 4-((5,7-Dibromo-2,3-dioxoindolin-1-yl)methyl)benzaldehyde]	39.58 ± 0.05	8.8 ± 2.3	8.2 ± 1.1	12.9 ± 3.3	24.82 ± 0.01	7.5 ± 1.8	5.4 ± 0.9	205 to 207		IC50 / cytotoxicity against the tested cell lines ([1]; range or statement over all tested cell lines, 48 h MTS): less cytotoxic than KS100
Br.N=C(N)SCc1ccc(Cn2nc(Br)c3cc(C(F)(F)F)ccc32)cc1 [Compound 16, 4-((3-Bromo-5-(trifluoromethyl)-1H-indazol-1-yl)methyl)benzyl carbamimidothioate hydrobromide]	-9.33 ± 0.04	4.9 ± 1.1	4 ± 1.3	7.1 ± 1.1	9.46 ± 0.01	5.7 ± 1.3	6.8 ± 1.4	213 to 215	2.1 to 6.8	
Br.N=C(N)SCc1ccc(Cn2nc(Br)c3cccc(C(F)(F)F)c32)cc1 [Compound 17, 4-((3-Bromo-7-(trifluoromethyl)-1H-indazol-1-yl)methyl)benzyl carbamimidothioate hydrobromide]	-25.33 ± 0.05	> 50	> 50	> 50	10.99 ± 0.0015	> 50	> 50	235 to 237		IC50 ([1]; Homo sapiens, Pancreatic cancer cell, 48 h, read-out: IC50 in cancer cell lines): > 50 µM
CC(C)CCn1c(CN2CCN(C(=O)C3CC3)CC2)nc2c1c(=O)n(C)c(=O)n2C [NCT-501]										reduction of HNSCC xenograft development (HNSCC xenograft): 78%
